Test results as given in paper PMC10201364 (MicrobiologyOpen, 2023).

Assays:
[1] = molecular target: Ah‐BarR T136A (P ah‐barR promoter, mKate2 reporter) (Acidianus hospitalis, UniProt F4B5V3, T136A); test: cell-based
Method: (§1) Reporter gene assays were performed as previously described (Bernauw et al., [2022]). pPRC6 and pITC variants (Table 1) were co‐transformed in E. coli MG1655 chemical competent cells using heat shock transformation. Transformant colonies of the Ah‐BarR biosensor strains were picked to inoculate wells of a transparent 96‐well plate (Greiner Bio‐One), each well filled with 200 µL of MOPS EZ Rich Defined medium (Teknova), prepared without the addition of the 5X EZ Supplement, after which the plate was incubated overnight in a ThermoMixer C (Eppendorf) at 30°C and 300 rpm. Next, a black 96‐well plate was filled with a naringenin solution prepared in ethanol (250 mg/L or 2.5 g/L), after which a Breathe‐Easy sealing membrane (Sigma‐Aldrich) was applied and the ethanol was evaporated in a ThermoMixer C (Eppendorf) at 75°C. […] Finally, the plate was sealed again using a Breathe‐Easy sealing membrane (Sigma‐Aldrich).
(§2) Plates were incubated at 30°C and 300 rpm for 40 h in a Synergy H1 microplate reader (BioTek) with measurements of OD600 and fluorescence (excitation wavelength: 588 nm, emission wavelength: 633 nm) being taken every 20 min. The gain was set to 140 for all measurements, except for the measurements with the amino acids (pools and separately), where the gain was set to 150. […] In addition, wells solely containing medium were measured as well to correct for the background signal.
(§3) Reporter expression was analyzed at t = 30 h, when all cultures had reached the stationary phase, by taking into account three subsequent time points (t–1, t, t+1). The corrected FL/OD600 value was calculated for each replicate (n = 4) as follows: FL/ODcor=FLt−1−FLmed,t−1/ODt−1−ODmed,t−1+FLt−FLmed,t/ODt−ODmed,t+FLt+1−FLmed,t+1/ODt+1−ODmed,t+1/3
(§4) Response curves were fitted to a Hill function of the shape P(M)=b+aM^n/θ^n+M^nforaβ−alanine−inducible responseb+aθ^n/θ^n+M^nforaβ−alanine−repressible response according to a previously published procedure (Landry et al., [2018]) with minor adaptations. […] Briefly, lmfit 1.1.0 was used to fit all replicates of a response curve to the appropriate Hill function using the Levenberg‐Marquardt algorithm (Moré, [1978]; Newville et al., [2016]). […] The dynamic range was estimated as μ=a/b .

[2] = molecular target: Ah‐BarR (P ah‐at aminotransferase promoter, mKate2 reporter) (Acidianus hospitalis, UniProt F4B5V3); test: cell-based
Method: as §1, §2, §3, §4

[3] = molecular target: Ah‐BarR M103A (P ah‐barR promoter, mKate2 reporter) (Acidianus hospitalis, UniProt F4B5V3, M103A); test: cell-based
Method: as §1, §2, §3, §4

[4] = molecular target: Ah‐BarR (P ah‐barR promoter, mKate2 reporter) (Acidianus hospitalis, UniProt F4B5V3); test: cell-based
Method: as §1, §2, §3, §4

[5] = molecular target: Ah‐BarR (S. acidocaldarius promoter P sa‐at, mKate2 reporter) (Acidianus hospitalis, UniProt F4B5V3); test: cell-based
Method: as §1, §2, §3, §4
(§5) Additional in vivo experiments were performed on strains BS3 and BS4 using the S. acidocaldarius promoters P sa‐barR and P sa‐at , respectively, in combination with Ah‐BarR.

[6] = molecular target: Ah‐BarR (S. acidocaldarius promoter P sa‐barR, mKate2 reporter) (Acidianus hospitalis, UniProt F4B5V3); test: cell-based
Method: as §1, §2, §3, §4, §5

[7] = molecular target: Ah‐BarR M103N (P ah‐barR promoter, mKate2 reporter) (Acidianus hospitalis, UniProt F4B5V3, M103N); test: cell-based; format: cell-based
Method: as §1, §2, §3, §4

[8] = molecular target: Ah‐BarR M103T (P ah‐barR promoter, mKate2 reporter) (Acidianus hospitalis, UniProt F4B5V3, M103T); test: cell-based; format: cell-based
Method: as §1, §2, §3, §4

[9] = test system: 274‐bp DNA fragment harboring the entire barR‐aminotransferase intergenic region (WT promoter); test: EMSA of Ah‐BarR with WT promoter fragment; parameters: species or system Acidianus hospitalis; conditions: 5 mM β‐alanine added to binding reactions
Method: Electrophoretic mobility shift assays (EMSAs) were performed as described (Charlier & Bervoets, [2022]). Either the forward or the reverse primer was radioactively labeled, using fresh γ‐^32P‐ATP (Perkin Elmer) and T4 polynucleotide kinase (Thermo Scientific). Labeled promoter fragments were obtained by PCR using Taq DNA polymerase (Promega), a ^32P‐labeled primer, a non‐labeled second primer, and a plasmid template (Table A4). Labeled fragments were purified by acrylamide gel electrophoresis. EMSA reactions were prepared in protein‐DNA binding buffer (20 mM Tris‐HCl pH 8.0, 50 mM NaCl, 0.4 mM EDTA, 0.1 mM DTT, 1 mM MgCl2, 12.5% glycerol) with each reaction containing 1 µL (20 cps/µL) of ^32P‐labeled promoter fragment, an excess (25 µg/mL) of non‐labeled, nonspecific competitor DNA (sonicated salmon sperm DNA, Invitrogen), and purified Ah‐BarR protein. Amino acids were added to the reactions in the mentioned concentrations. […] Scans of the gels were analyzed by densitometry using ImageJ (Schneider et al., [2012]), after which GraphPad PRISM (version 9.3.1 for Windows, GraphPad Software, www.graphpad.com) was used to perform Hill curve fitting using nonlinear regression for saturated binding (one site, specific binding), and to determine apparent equilibrium dissociation constants K D.

[10] = BS1 T136A, β‐alanine 0–10 mM, 20 mg/L naringenin, Hill fit
[11] = BS2, β‐alanine 0–10 mM, 20 mg/L naringenin, Hill fit
[12] = BS1 M103A, β‐alanine 0–10 mM, 20 mg/L naringenin, Hill fit
[13] = BS1, β‐alanine 0–10 mM, 20 mg/L naringenin, t = 30 h, Hill fit
[14] = BS4, β‐alanine 0–10 mM, 20 mg/L naringenin, Hill fit
[15] = BS3, β‐alanine 0–10 mM, 20 mg/L naringenin, Hill fit
[16] = BS1 M103T, β‐alanine 0–10 mM, 20 mg/L naringenin, Hill fit

Ah‐BarR M103T (P ah‐barR promoter, mKate2 reporter), sequence (F4B5V3 entry or part of it M103T): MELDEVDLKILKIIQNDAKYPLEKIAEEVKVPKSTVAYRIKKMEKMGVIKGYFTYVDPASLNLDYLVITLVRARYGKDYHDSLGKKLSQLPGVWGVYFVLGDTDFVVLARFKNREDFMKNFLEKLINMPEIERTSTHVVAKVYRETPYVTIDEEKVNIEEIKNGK
Ah‐BarR M103A (P ah‐barR promoter, mKate2 reporter), sequence (F4B5V3 entry or part of it M103A): as the sequence (F4B5V3 entry or part of it M103T) above, with T103A counted along it
Ah‐BarR M103N (P ah‐barR promoter, mKate2 reporter), sequence (F4B5V3 entry or part of it M103N): as the sequence (F4B5V3 entry or part of it M103T) above, with T103N counted along it
Ah‐BarR (S. acidocaldarius promoter P sa‐barR, mKate2 reporter), sequence (F4B5V3 1-165): as the sequence (F4B5V3 entry or part of it M103T) above, with T103M counted along it
Ah‐BarR (P ah‐at aminotransferase promoter, mKate2 reporter), sequence (F4B5V3 1-165): as the sequence (F4B5V3 entry or part of it M103T) above, with T103M counted along it
Ah‐BarR (S. acidocaldarius promoter P sa‐at, mKate2 reporter), sequence (F4B5V3 1-165): as the sequence (F4B5V3 entry or part of it M103T) above, with T103M counted along it
Ah‐BarR (P ah‐barR promoter, mKate2 reporter), sequence (F4B5V3 1-165): as the sequence (F4B5V3 entry or part of it M103T) above, with T103M counted along it
Ah‐BarR T136A (P ah‐barR promoter, mKate2 reporter), sequence (F4B5V3 entry or part of it T136A): as the sequence (F4B5V3 entry or part of it M103T) above, with T103M, T136A counted along it

SMILES: NCCC(=O)O [β‐alanine]
- EC50 [1]: 960 µM
- Hill coefficient n ([1]; BS1 T136A, 20 mg/L naringenin): 1.36
- Dynamic range µ ([1]; BS1 T136A, µ = a/b): 3.31
- Basal fluorescence output b [1, 10]: 2469 RFU
- Maximum fluorescence increase a [1, 10]: 8171 RFU
- EC50 [2]: 110 µM
- Hill coefficient n ([2]; BS2, 20 mg/L naringenin): 1.62
- Dynamic range µ ([2]; BS2, µ = a/b): 1.58
- Basal fluorescence output b [2, 11]: 313 RFU
- Maximum fluorescence increase a [2, 11]: 494 RFU
- EC50 [3]: 1350 µM
- Hill coefficient n ([3]; BS1 M103A, 20 mg/L naringenin): 1.88
- Dynamic range µ ([3]; BS1 M103A, µ = a/b): 3.25
- Basal fluorescence output b [3, 12]: 2289 RFU
- Maximum fluorescence increase a [3, 12]: 7429 RFU
- EC50 [4]: 370 µM
- Hill coefficient n ([4]; BS1, 20 mg/L naringenin): 1.77
- Dynamic range µ ([4]; BS1, µ = a/b): 3.07
- Basal fluorescence output b [4, 13]: 2226 RFU
- Maximum fluorescence increase a [4, 13]: 6828 RFU
- ligand specificity: effect on transcriptional regulation of barR and at ([4]; BS1 and BS2 strains, 20 mg/L naringenin, individual amino acids of pools 1 and 7 at 3/5 mM): specifically ascribed to β‐alanine
- EC50 [5]: 90 µM
- Hill coefficient n ([5]; BS4, 20 mg/L naringenin): 2.99
- Dynamic range µ ([5]; BS4, µ = a/b): 5.15
- Basal fluorescence output b [5, 14]: 13,873 RFU
- Maximum fluorescence increase a [5, 14]: 71,426 RFU
- EC50 [6]: 100 µM
- Hill coefficient n ([6]; BS3, 20 mg/L naringenin): 2.00
- Dynamic range µ ([6]; BS3, µ = a/b): 1.17
- Basal fluorescence output b [6, 15]: 4595 RFU
- Maximum fluorescence increase a [6, 15]: 5355 RFU
- Basal fluorescence output b [7]: 2281 RFU
- Dynamic range µ [7]: 4.11
- EC50 [7]: 460 µM
- Hill coefficient n [7]: 1.48
- Maximum fluorescence increase a [7]: 9373 RFU
- EC50 [8]: 320 µM
- Hill coefficient n ([8]; BS1 M103T, 20 mg/L naringenin): 1.36
- Dynamic range µ ([8]; BS1 M103T, µ = a/b): 2.49
- Basal fluorescence output b [8, 16]: 3184 RFU
- Maximum fluorescence increase a [8, 16]: 7915 RFU
- effect of β‐alanine on formation of Ah‐BarR‐DNA complexes [9]: did not significantly alter
